Reference: patent publication US20240317777A1, “NOVEL MACROCYCLIC AMINOPYRAZOLE COMPOUNDS AS CDK2 INHIBITORS” (Accutar Biotechnology Inc., priority 2023, published 2024)
Like-named read-outs stand apart in the source and are kept apart here. Each block holds one compound with its values, some of them ahead of it.

Assays:
CDK1-CYCLIN B = CDK1-CYCLIN B (Homo sapiens, UniProt P06493); test: CDK protein kinase inhibition by ADP-Glo assay, CDK1-CYCLIN B; assay type: biochemical; conditions: for IC50: ADP-Glo, 1000 μM ATP, read-out: CDK1-CYCLINB, IC50; for CDK2 Fold selectivity, CDK1: CDK2 versus CDK1
Procedure: (§1) CDK Protein Kinase Inhibition by ADP-Glo Assay
(§2) This ADP-Glo assay measures ADP formed from a kinase reaction and indirectly quantifies the phosphorylation of peptide substrates by the CDK/cyclin protein complexes. The typical assays were carried out in Nanosyn by combining kinase/cyclin complexes, substrates, compounds, and cofactors (ATP and Mg2+) in a well of a 384-well microtiter plate (Corning 3824) and incubating at 22° C. (Table 1). At the end of the incubation, the reaction is quenched, and conversion is detected by luminescence using the Promega ADP-Glo™ Kinase Assay kit (catalog #V9102).
(§3) Final assay buffer mixture contains: • 100 mM HEPES, pH 7.5 • 0.1% BSA • 0.01% Triton X-100 • 1 mM DTT • 5 mM MgCl2 • 10 μM Sodium Orthovanadate • 100 μM Beta-Glycerophosphate • 1000 μM Ultra Pure ATP (provided in the Promega ADP-Glo™ Kinase Assay kit) • 1% DMSO (from compound)
(§4) Upon completion, 5 μL of the ADP Glo reagent was added to each well and the plate was further incubated at room temperature for 45 minutes. 10 uL of the Kinase Detection Reagent was subsequently added to each well. After 10 minutes of incubation, the plate was read and analyzed on the BioTek Synergy microplate reader using BioTek Gen5 software.

CDK2-CYCLIN E1 = CDK2-CYCLIN E1 (Homo sapiens, UniProt P24941); test: CDK protein kinase inhibition by ADP-Glo assay, CDK2-CYCLIN E1; assay type: biochemical; conditions: ADP-Glo, 1000 μM ATP, read-out: CDK2-CYCLINE, IC50
Procedure: as §1, §2, §3, §4

CDK4-CYCLIN D1 = CDK4-CYCLIN D1 (Homo sapiens, UniProt P11802); test: CDK protein kinase inhibition by ADP-Glo assay, CDK4-CYCLIN D1; assay type: biochemical; conditions: for IC50: ADP-Glo, 1000 μM ATP, read-out: CDK4-CYCLIND1, IC50; for CDK2 Fold selectivity, CDK4: CDK2 versus CDK4
Procedure: as §1, §2, §3, §4

CDK6-CYCLIN D3 = CDK6-CYCLIN D3 (Homo sapiens, UniProt Q00534); test: CDK protein kinase inhibition by ADP-Glo assay, CDK6-CYCLIN D3; assay type: biochemical; conditions: for IC50: ADP-Glo, 1000 μM ATP, read-out: CDK6-CYCLIND3, IC50; for CDK2 Fold selectivity, CDK6: CDK2 versus CDK6
Procedure: as §1, §2, §3, §4

CDK9-CYCLIN T1 = CDK9-CYCLIN T1 (Homo sapiens, UniProt P50750); test: CDK protein kinase inhibition by ADP-Glo assay, CDK9-CYCLIN T1; assay type: biochemical; conditions: for IC50: ADP-Glo, 1000 μM ATP, read-out: CDK9-CYCLINT1, IC50; for CDK2 Fold selectivity, CDK9: CDK2 versus CDK9
Procedure: as §1, §2, §3, §4

[1] = tested on: Phospho-Rb (Ser807/811) in OVCAR3 cells; test: Phospho-Rb expression inhibition in OVCAR3 cells quantified by In Cell Western; assay type: cell-based; conditions: Homo sapiens, OVCAR-3, 24 hours, read-out: OVCAR-3 pRb IC50
How it was run: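 In-cell western: after 24 h compound exposure at 37° C, fixed OVCAR3 cells co-stained for pRb Ser807/811 (800 nm channel) and total Rb (680 nm channel), imaged by LI-COR Odyssey.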

[2] = tested on: CCNE1-amplified OVCAR3 cells; test: Cell growth inhibition of CCNE1-amplified OVCAR3 cells (CellTiter-Glo); assay type: cell-based; conditions: Homo sapiens, OVCAR-3, 144 h, 6 days
How it was run: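 Growth read-out was CellTiter-Glo luminescence, taken after 10 min at room temperature at the end of a 6-day compound exposure at 37 °C. Compounds were diluted from DMSO stocks across various concentrations.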

CCNE1-normal SKOV3 cells = test: Cell growth inhibition of CCNE1-normal SKOV3 cells (CellTiter-Glo); assay type: cell-based; conditions: Homo sapiens, SK-OV-3, 144 h, 6 days
How it was run: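 Growth was measured by CellTiter-Glo luminescence after 6 days' compound exposure at 37 °C. Cells were plated one day before dosing at 1000 per well in medium with 10% FBS, and compounds were diluted from DMSO stocks.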

Sequence of CDK9-CYCLIN T1 (P50750 whole entry): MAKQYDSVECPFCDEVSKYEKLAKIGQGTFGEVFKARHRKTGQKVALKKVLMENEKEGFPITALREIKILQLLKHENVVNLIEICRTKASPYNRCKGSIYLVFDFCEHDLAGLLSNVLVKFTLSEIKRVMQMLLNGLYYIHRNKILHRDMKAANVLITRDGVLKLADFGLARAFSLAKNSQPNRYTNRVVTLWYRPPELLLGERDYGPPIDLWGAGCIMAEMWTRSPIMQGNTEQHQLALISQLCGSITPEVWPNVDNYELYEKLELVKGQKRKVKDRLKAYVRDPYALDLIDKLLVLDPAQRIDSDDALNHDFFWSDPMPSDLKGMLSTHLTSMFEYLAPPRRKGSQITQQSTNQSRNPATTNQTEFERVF
Sequence of CDK9-CYCLIN T1 (O60563 whole entry partner): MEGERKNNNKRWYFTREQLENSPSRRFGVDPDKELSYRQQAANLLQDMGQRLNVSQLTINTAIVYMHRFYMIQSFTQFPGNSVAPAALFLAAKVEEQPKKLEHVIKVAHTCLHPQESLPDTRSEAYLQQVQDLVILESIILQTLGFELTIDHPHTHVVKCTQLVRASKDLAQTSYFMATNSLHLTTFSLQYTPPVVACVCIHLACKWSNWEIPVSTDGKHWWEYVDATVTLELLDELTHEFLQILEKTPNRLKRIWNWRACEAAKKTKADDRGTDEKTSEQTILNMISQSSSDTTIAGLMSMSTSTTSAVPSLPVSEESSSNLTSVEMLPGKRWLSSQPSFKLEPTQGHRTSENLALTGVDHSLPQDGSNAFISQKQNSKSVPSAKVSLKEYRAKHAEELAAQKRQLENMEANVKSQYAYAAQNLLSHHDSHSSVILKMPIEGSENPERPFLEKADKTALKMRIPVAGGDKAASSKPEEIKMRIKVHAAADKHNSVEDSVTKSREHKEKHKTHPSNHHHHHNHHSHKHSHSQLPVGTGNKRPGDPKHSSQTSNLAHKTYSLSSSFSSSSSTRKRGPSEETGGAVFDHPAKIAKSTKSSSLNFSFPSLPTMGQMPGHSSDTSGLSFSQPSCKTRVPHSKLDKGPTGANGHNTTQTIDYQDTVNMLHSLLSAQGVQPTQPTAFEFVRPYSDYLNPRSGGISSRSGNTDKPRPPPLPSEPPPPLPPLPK
Sequence of CDK6-CYCLIN D3 (Q00534 whole entry): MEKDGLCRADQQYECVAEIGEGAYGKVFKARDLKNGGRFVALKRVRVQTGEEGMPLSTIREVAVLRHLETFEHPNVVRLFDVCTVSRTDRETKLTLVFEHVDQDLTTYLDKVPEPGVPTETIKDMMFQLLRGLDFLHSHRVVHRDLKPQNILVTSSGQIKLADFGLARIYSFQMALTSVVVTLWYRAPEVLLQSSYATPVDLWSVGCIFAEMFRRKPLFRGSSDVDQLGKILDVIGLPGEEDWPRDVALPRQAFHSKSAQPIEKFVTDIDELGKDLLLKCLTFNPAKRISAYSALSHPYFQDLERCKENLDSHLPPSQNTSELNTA
Sequence of CDK6-CYCLIN D3 (P30281 whole entry partner): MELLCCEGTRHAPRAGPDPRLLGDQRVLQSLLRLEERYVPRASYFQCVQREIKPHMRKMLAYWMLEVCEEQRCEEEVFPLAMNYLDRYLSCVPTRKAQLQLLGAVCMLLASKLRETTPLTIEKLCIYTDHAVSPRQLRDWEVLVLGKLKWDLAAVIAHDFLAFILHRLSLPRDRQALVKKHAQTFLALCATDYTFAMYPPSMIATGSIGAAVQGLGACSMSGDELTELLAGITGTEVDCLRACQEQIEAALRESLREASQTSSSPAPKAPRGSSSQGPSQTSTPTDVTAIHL
Sequence of CDK4-CYCLIN D1 (P11802 whole entry): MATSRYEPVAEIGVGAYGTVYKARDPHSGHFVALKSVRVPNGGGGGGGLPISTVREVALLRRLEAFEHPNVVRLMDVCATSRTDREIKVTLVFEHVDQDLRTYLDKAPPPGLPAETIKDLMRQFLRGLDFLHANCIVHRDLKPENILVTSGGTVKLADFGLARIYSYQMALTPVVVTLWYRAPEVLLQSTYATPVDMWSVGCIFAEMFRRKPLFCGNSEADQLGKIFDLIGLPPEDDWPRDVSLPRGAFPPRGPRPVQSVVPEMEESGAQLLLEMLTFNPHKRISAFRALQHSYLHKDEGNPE
Sequence of CDK4-CYCLIN D1 (P24385 whole entry partner): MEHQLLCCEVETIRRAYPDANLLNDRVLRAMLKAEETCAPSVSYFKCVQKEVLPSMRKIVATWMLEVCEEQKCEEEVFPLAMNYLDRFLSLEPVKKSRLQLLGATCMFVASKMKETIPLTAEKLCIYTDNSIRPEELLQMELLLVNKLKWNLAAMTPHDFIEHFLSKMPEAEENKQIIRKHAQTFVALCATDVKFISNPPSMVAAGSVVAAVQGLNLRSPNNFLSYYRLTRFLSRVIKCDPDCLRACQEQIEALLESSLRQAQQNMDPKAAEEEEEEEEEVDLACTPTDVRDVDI
Sequence of CDK1-CYCLIN B (P06493 whole entry): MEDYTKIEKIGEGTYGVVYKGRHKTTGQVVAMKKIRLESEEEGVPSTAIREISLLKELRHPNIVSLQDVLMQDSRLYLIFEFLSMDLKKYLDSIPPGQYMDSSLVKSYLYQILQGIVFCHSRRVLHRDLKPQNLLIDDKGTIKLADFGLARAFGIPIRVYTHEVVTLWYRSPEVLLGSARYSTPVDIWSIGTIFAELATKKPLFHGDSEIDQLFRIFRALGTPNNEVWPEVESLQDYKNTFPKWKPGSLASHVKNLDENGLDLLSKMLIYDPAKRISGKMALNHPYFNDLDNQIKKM
Sequence of CDK1-CYCLIN B (P14635 whole entry partner): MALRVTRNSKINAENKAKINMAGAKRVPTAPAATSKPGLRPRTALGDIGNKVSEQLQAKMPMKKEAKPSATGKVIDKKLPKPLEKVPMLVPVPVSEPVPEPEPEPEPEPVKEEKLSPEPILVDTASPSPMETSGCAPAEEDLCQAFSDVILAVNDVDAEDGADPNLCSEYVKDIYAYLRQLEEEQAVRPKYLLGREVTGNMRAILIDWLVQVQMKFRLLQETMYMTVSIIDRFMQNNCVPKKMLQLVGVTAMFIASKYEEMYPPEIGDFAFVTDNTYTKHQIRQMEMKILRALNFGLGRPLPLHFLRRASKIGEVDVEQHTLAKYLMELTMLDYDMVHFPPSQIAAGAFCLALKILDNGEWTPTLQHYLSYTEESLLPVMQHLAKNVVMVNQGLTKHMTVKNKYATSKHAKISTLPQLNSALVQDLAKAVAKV

SMILES: O=C1NC2(CCCCc3cc(ccn3)Nc3cc(n[nH]3)[C@H]3CC[C@H](C3)O1)CC2 [Compound 116, (1′S,3′R,Z)-spiro[cyclopropane-1,9′-12-oxa-3,10-diaza-4(4,2)-pyridina-2(3,5)-pyrazola-1(1,3)-cyclopentanacyclododecaphan]-11′-one]
- IC50 (CDK1-CYCLIN B; Table 17): 50 to 100 nM
- CDK2 Fold selectivity, CDK1 (CDK1-CYCLIN B; Table 18): D (D, >20 and ≤50)
- IC50 (CDK2-CYCLIN E1; Table 17): ≤ 10 nM
- IC50 (CDK4-CYCLIN D1; Table 17): 10 to 50 nM
- CDK2 Fold selectivity, CDK4 (CDK4-CYCLIN D1; Table 18): E (E, <20)
- IC50 (CDK6-CYCLIN D3; Table 17): 10 to 50 nM
- CDK2 Fold selectivity, CDK6 (CDK6-CYCLIN D3; Table 18): E (E, <20)
- IC50 (CDK9-CYCLIN T1; Table 17): 50 to 100 nM
- CDK2 Fold selectivity, CDK9 (CDK9-CYCLIN T1; Table 18): D (D, >20 and ≤50)
- IC50 [1]: 10 to 50 nM
- IC50 [2]: 10 to 50 nM
- IC50 (CCNE1-normal SKOV3 cells): 250 to 1250 nM

SMILES: C[C@@H]1NC(=O)O[C@@H]2CC[C@@H](C2)c2cc([nH]n2)Nc2ccnc(c2)OCCC1(F)F [Compound 181, (1^1S,1^3R,9S,Z)-8,8-difluoro-9-methyl-2^1H-5,12-dioxa-3,10-diaza-4(4,2)-pyridina-2(3,5)-pyrazola-1(1,3)-cyclopentanacyclododecaphan-11-one]
- IC50 (CDK1-CYCLIN B; Table 29): 100 to 500 nM
- CDK2 Fold selectivity, CDK1 (CDK1-CYCLIN B; Table 30): D (D, >20 and ≤50)
- IC50 (CDK2-CYCLIN E1; Table 29): ≤ 10 nM
- IC50 (CDK4-CYCLIN D1; Table 29): > 500 nM
- CDK2 Fold selectivity, CDK4 (CDK4-CYCLIN D1; Table 30): C (C, >50 and ≤100)
- IC50 (CDK6-CYCLIN D3; Table 29): > 500 nM
- CDK2 Fold selectivity, CDK6 (CDK6-CYCLIN D3; Table 30): C (C, >50 and ≤100)
- IC50 (CDK9-CYCLIN T1; Table 29): 100 to 500 nM
- CDK2 Fold selectivity, CDK9 (CDK9-CYCLIN T1; Table 30): D (D, >20 and ≤50)
- IC50 [1]: 10 to 50 nM
- IC50 [2]: 10 to 50 nM
- IC50 (CCNE1-normal SKOV3 cells): 250 to 1250 nM

SMILES: C[C@H]1CCCNC(=O)O[C@@H]2CC[C@@H](C2)c2cc([nH]n2)Nc2cccc(c2)O1 [Compound 157, (1^1S,1^3R,6S,Z)-6-methyl-2^1H-5,12-dioxa-3,10-diaza-2(3,5)-pyrazola-4(1,3)-benzena-1(1,3)-cyclopentanacyclododecaphan-11-one]
- IC50 (CDK1-CYCLIN B; Table 21): 50 to 100 nM
- CDK2 Fold selectivity, CDK1 (CDK1-CYCLIN B; Table 22): E (E, <20)
- IC50 (CDK2-CYCLIN E1; Table 21): ≤ 10 nM
- IC50 (CDK4-CYCLIN D1; Table 21): 100 to 500 nM
- CDK2 Fold selectivity, CDK4 (CDK4-CYCLIN D1; Table 22): D (D, >20 and ≤50)
- IC50 (CDK6-CYCLIN D3; Table 21): 100 to 500 nM
- CDK2 Fold selectivity, CDK6 (CDK6-CYCLIN D3; Table 22): D (D, >20 and ≤50)
- IC50 (CDK9-CYCLIN T1; Table 21): 100 to 500 nM
- CDK2 Fold selectivity, CDK9 (CDK9-CYCLIN T1; Table 22): C (C, >50 and ≤100)
- IC50 [1]: 10 to 50 nM
- IC50 [2]: 10 to 50 nM
- IC50 (CCNE1-normal SKOV3 cells): 250 to 1250 nM

SMILES: C[C@@H]1Oc2cncc(c2)Nc2cc(n[nH]2)[C@H]2CC[C@H](C2)OC(=O)N[C@H]2C[C@@H]1C2 [Compound 149, (1^1S,1^3R,7^1S,7^3R,6S,Z)-6-methyl-2^1H-5,10-dioxa-3,8-diaza-4(3,5)-pyridina-2(3,5)-pyrazola-1(1,3)-cyclopentana-7(1,3)-cyclobutanacyclodecaphan-9-one]
- IC50 (CDK1-CYCLIN B; Table 23): 100 to 500 nM
- CDK2 Fold selectivity, CDK1 (CDK1-CYCLIN B; Table 24): E (E, <20)
- IC50 (CDK2-CYCLIN E1; Table 23): 10 to 50 nM
- IC50 (CDK4-CYCLIN D1; Table 23): 100 to 500 nM
- CDK2 Fold selectivity, CDK4 (CDK4-CYCLIN D1; Table 24): E (E, <20)
- IC50 (CDK6-CYCLIN D3; Table 23): > 500 nM
- CDK2 Fold selectivity, CDK6 (CDK6-CYCLIN D3; Table 24): D (D, >20 and ≤50)
- IC50 (CDK9-CYCLIN T1; Table 23): > 500 nM
- CDK2 Fold selectivity, CDK9 (CDK9-CYCLIN T1; Table 24): C (C, >50 and ≤100)
- IC50 [1]: 10 to 50 nM
- IC50 [2]: 10 to 50 nM
- IC50 (CCNE1-normal SKOV3 cells): > 1250 nM

Continued, in another order:

- IC50 (CDK1-CYCLIN B; Table 17): ≤ 10 nM
- CDK2 Fold selectivity, CDK1 (CDK1-CYCLIN B; Table 18): E (E, <20)
- IC50 (CDK2-CYCLIN E1; Table 17): ≤ 10 nM
- IC50 (CDK4-CYCLIN D1; Table 17): 100 to 500 nM
- CDK2 Fold selectivity, CDK4 (CDK4-CYCLIN D1; Table 18): C (C, >50 and ≤100)
- IC50 (CDK6-CYCLIN D3; Table 17): 100 to 500 nM
- CDK2 Fold selectivity, CDK6 (CDK6-CYCLIN D3; Table 18): C (C, >50 and ≤100)
- IC50 (CDK9-CYCLIN T1; Table 17): 10 to 50 nM
- CDK2 Fold selectivity, CDK9 (CDK9-CYCLIN T1; Table 18): E (E, <20)
- IC50 [1]: ≤ 2 nM
- IC50 [2]: 2 to 10 nM
SMILES: C[C@H]1CC23CC(C2)(C3)NC(=O)O[C@@H]2CC[C@@H](C2)c2cc([nH]n2)Nc2ccnc(c2)O1 [Compound 102, (1^1S,1^3R,6S,Z)-6-methyl-2^1H-5,11-dioxa-3,9-diaza-4(4,2)-pyridina-2(3,5)-pyrazola-8(1,3)-bicyclo[1.1.1]pentana-1(1,3)-cyclopentanacycloundecaphan-10-one]
- IC50 (CCNE1-normal SKOV3 cells): 50 to 250 nM

- IC50 (CDK1-CYCLIN B; Table 21): ≤ 10 nM
- CDK2 Fold selectivity, CDK1 (CDK1-CYCLIN B; Table 22): E (E, <20)
- IC50 (CDK2-CYCLIN E1; Table 21): ≤ 10 nM
- IC50 (CDK4-CYCLIN D1; Table 21): 50 to 100 nM
- CDK2 Fold selectivity, CDK4 (CDK4-CYCLIN D1; Table 22): D (D, >20 and ≤50)
- IC50 (CDK6-CYCLIN D3; Table 21): 50 to 100 nM
- CDK2 Fold selectivity, CDK6 (CDK6-CYCLIN D3; Table 22): D (D, >20 and ≤50)
- IC50 (CDK9-CYCLIN T1; Table 21): 100 to 500 nM
- CDK2 Fold selectivity, CDK9 (CDK9-CYCLIN T1; Table 22): D (D, >20 and ≤50)
- IC50 [1]: 2 to 10 nM
- IC50 [2]: 2 to 10 nM
SMILES: C[C@H]1CC[C@H](C)Oc2cncc(c2)Nc2cc(n[nH]2)[C@H]2CC[C@H](C2)OC(=O)N1 [Compound 151, (1^1S,1^3R,6S,9S,Z)-6,9-dimethyl-2^1H-5,12-dioxa-3,10-diaza-4(3,5)-pyridina-2(3,5)-pyrazola-1(1,3)-cyclopentanacyclododecaphan-11-one]
- IC50 (CCNE1-normal SKOV3 cells): 250 to 1250 nM

- IC50 (CDK1-CYCLIN B; Table 21): 10 to 50 nM
- IC50 (CDK2-CYCLIN E1; Table 21): ≤ 10 nM
- IC50 (CDK4-CYCLIN D1; Table 21): 100 to 500 nM
- IC50 (CDK6-CYCLIN D3; Table 21): 100 to 500 nM
- IC50 (CDK9-CYCLIN T1; Table 21): 100 to 500 nM
- IC50 [1]: 2 to 10 nM
- IC50 [2]: 10 to 50 nM
SMILES: C[C@H]1CC[C@H](C)Oc2cc(ccn2)Nc2cc(n[nH]2)[C@H]2CC[C@H](C2)OC(=O)N1 [compound 162]
- IC50 (CCNE1-normal SKOV3 cells): 250 to 1250 nM

- IC50 (CDK1-CYCLIN B; Table 19): 10 to 50 nM
- IC50 (CDK2-CYCLIN E1; Table 19): ≤ 10 nM
- IC50 (CDK4-CYCLIN D1; Table 19): 10 to 50 nM
- IC50 (CDK6-CYCLIN D3; Table 19): 50 to 100 nM
- IC50 (CDK9-CYCLIN T1; Table 19): 10 to 50 nM
- IC50 [1]: 2 to 10 nM
- IC50 [2]: 10 to 50 nM
SMILES: O=C1N[C@H]2C[C@H](CCc3cc(ccn3)Nc3cc(n[nH]3)[C@H]3CC[C@H](C3)O1)C2 [compound 140]
- IC50 (CCNE1-normal SKOV3 cells): 50 to 250 nM
